Results published in article PMC9851200, “Multiparameter phenotypic screening for endogenous TFEB and TFE3 translocation identifies novel chemical series modulating lysosome function” (Autophagy, 2022).
Entries after “also recorded” stand apart in the source; their conditions may differ. Like-named read-outs stand apart in the source and are kept apart here.

Key:
GFP-Ex1HTT74Q = test: HTT aggregation assay, PC12 cells expressing GFP-Ex1HTT74Q; assay type: cell-based; settings: 48 h, 16 nM - 2 µM
Experimental: PC12 cells stably expressing GFP-tagged exon 1 of HTT with a 74-repeat polyglutamine-expansion (GFP-Ex1HTT74Q) under tetracycline-inducible promoter control [41]were maintained at 37°C and 5% CO2 in RPMI medium (Sigma Aldrich, R8758) supplemented with 10% horse serum (Sigma Aldrich, H1138), 5% fetal bovine serum, 1% Glutamine (Sigma Aldrich, G7513), 1% Pen-Strep (Sigma, P0781), 0.1 mg/mL G418 (ThermoFisher, 10,131,035), and 0.07 mg/mL hygromycin B (ThermoFisher, 10,687,010). Cells were plated at a density of 10,000 per well in 96-well black cycloolefin thin-bottom plates (Perkin Elmer, 6,055,300) coated with collagen IV (Sigma Aldrich, C5533). After 5 h, expression of GFP-Ex1HttQ74 was induced with doxycycline (100 ng/mL; Sigma Aldrich, D3447). After 16 h of induction, compounds (final concentrations 16 nM – 2 µM) were added in fresh medium with doxycycline (100 ng/ml). Final concentration of DMSO (Sigma Aldrich, D8418) was 0.1% in all wells. After 48 h of incubation in the presence of compound, cells were washed once in PBS and fixed with 4% paraformaldehyde (Thermofisher Scientific, 28,908) supplemented with 10 µg/mL Hoechst 33,342 (ThermoFisher Scientific, H3570) for 15 min. […] Image feature extraction was carried out using CellProfiler software. Data aggregation, normalization and distance score calculations were carried out using StratoMineR software.

SRPK1, SRPK2 = test: KiNativ in-cell kinase binding, SRPK1, SRPK2; settings: 2 µM
Source text: (§1) As KINOMEscan is an in vitro assay, and as different cell types have variable kinase expression profiles we sought to determine the kinase binding profile in our SH-SY5Y TFEB-relocalization cell model. […] Bound kinases were pulled down and analyzed by mass spectrometry to determine the in situ kinase binding profile for each compound.

[1] = target: cellular kinases of SH-SY5Y cells (Homo sapiens, UniProt P41743); test: biochemical; assay type: binding; settings: 2µM; SH-SY5Y cells; Labeling Site Lys1; IYAMKVVK; read-out: KiNativ in-cell binding, % Inhibition, PRKCI/PKCi
Source text: as §1

[2] = target: cellular kinases of SH-SY5Y cells (Homo sapiens, UniProt P68400); test: biochemical; assay type: binding; settings: 2µM; SH-SY5Y cells; labeling site Protein Kinase Domain; peptide GGPNIITLADIVKDPVSR
Sequence of cellular kinases of SH-SY5Y cells (Homo sapiens, UniProt P68400) (P68400 whole entry, the tested form may be a part): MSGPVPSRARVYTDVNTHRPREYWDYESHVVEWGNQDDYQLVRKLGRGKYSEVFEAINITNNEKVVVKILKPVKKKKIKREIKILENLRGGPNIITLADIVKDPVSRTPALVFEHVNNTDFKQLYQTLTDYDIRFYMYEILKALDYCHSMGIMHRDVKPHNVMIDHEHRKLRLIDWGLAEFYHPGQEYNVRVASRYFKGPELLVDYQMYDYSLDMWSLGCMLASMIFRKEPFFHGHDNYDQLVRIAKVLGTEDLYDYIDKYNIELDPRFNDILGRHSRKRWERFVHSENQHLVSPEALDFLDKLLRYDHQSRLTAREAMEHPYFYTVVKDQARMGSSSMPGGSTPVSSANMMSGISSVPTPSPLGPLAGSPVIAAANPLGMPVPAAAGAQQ
Source text: as §1

[3] = target: T1, cellular kinases of SH-SY5Y cells (Homo sapiens, UniProt Q07912); test: biochemical; assay type: binding; settings: 2µM, SH-SY5Y cells, read-out: KiNativ in-cell binding, % Inhibition, TNK2/ACK
T1 construct: endogenous in cells; host or cells: SH-SY5Y
T1 sequence (Q07912 whole entry): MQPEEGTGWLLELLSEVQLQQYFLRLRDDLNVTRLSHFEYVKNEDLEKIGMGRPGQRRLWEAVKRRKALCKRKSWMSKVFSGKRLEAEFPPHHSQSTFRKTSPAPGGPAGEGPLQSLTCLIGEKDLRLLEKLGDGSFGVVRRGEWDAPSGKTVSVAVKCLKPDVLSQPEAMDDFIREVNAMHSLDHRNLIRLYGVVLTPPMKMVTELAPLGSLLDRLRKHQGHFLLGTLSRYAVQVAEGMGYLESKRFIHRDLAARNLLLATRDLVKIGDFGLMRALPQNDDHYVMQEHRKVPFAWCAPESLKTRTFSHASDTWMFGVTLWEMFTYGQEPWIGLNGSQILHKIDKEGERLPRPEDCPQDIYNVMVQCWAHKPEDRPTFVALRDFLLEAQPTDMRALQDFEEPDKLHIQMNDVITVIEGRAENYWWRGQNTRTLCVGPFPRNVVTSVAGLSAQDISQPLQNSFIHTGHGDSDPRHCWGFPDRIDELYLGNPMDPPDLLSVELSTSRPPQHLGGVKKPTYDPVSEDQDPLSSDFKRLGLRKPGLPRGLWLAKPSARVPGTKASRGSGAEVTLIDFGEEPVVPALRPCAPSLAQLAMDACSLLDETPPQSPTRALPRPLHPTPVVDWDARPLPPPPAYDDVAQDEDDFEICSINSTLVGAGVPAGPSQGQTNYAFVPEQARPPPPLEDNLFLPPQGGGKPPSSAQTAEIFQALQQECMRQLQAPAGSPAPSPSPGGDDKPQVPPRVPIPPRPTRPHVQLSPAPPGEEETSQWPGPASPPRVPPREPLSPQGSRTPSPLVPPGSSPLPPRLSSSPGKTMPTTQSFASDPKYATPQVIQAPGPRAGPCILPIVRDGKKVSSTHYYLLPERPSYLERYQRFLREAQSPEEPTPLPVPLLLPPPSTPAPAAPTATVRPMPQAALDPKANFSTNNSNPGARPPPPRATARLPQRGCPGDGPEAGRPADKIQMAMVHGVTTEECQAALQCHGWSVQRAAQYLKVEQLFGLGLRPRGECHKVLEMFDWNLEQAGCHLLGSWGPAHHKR
Source text: as §1

TFE3 = TFE3 translocation in CRISPRi PRKD2 or PRKD3 knockdown SH-SY5Y cells; assay type: cell-based; settings: SH-SY5Y dCas9-KRAB, Scr, PRKD2 or PRKD3 targeting guides, increasing concentrations
PRKD3 = target: T2, PRKD3 (Homo sapiens, UniProt O94806); test: KiNativ in-cell kinase binding, PRKD3; design: endogenous in cells; host or cells: SH-SY5Y; settings: for inhibition at 2 µM: SH-SY5Y cells
T2 sequence (O94806 1-890): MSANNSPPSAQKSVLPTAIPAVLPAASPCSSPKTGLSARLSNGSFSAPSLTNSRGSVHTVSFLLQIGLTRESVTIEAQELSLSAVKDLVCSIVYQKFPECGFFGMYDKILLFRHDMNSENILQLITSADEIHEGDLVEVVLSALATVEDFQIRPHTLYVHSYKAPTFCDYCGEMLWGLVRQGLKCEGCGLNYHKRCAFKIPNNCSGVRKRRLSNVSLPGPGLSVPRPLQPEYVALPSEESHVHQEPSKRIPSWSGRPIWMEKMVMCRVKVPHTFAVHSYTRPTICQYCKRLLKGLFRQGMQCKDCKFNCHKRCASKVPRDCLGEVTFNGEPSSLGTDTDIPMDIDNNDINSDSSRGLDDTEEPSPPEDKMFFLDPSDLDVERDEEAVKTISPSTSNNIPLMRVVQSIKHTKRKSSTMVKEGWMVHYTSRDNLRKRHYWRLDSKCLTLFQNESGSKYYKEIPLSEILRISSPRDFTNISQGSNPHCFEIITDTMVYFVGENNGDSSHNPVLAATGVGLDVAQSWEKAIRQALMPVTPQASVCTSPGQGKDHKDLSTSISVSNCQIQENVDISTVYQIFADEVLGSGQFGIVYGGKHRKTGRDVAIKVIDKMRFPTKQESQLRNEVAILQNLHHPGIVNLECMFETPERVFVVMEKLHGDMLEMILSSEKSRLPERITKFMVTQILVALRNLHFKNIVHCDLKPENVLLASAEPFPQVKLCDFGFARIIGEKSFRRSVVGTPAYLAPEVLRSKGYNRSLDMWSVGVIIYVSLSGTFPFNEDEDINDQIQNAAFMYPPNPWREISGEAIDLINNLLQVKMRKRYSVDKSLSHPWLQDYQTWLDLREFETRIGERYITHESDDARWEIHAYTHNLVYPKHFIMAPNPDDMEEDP
Source text: as §1

MAPK9/JNK2 = MAPK9/JNK2 (Homo sapiens, UniProt P45984); assay type: binding
Sequence of MAPK9/JNK2 (P45984 whole entry): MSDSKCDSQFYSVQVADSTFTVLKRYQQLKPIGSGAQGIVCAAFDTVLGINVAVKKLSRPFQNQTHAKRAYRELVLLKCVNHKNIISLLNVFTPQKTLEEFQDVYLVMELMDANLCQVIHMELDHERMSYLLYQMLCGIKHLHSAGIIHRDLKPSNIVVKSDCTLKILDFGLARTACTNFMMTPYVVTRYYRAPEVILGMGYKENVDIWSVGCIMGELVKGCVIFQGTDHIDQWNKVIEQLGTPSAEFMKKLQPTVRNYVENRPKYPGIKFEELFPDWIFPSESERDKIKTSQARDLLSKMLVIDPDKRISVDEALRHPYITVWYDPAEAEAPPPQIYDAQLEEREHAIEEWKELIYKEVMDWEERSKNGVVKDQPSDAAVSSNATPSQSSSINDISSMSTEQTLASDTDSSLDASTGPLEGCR

[4] = target: kinases (KINOMEscan panel) (Homo sapiens, UniProt O00506); assay type: binding
Sequence of kinases (KINOMEscan panel) (Homo sapiens, UniProt O00506) (O00506 whole entry): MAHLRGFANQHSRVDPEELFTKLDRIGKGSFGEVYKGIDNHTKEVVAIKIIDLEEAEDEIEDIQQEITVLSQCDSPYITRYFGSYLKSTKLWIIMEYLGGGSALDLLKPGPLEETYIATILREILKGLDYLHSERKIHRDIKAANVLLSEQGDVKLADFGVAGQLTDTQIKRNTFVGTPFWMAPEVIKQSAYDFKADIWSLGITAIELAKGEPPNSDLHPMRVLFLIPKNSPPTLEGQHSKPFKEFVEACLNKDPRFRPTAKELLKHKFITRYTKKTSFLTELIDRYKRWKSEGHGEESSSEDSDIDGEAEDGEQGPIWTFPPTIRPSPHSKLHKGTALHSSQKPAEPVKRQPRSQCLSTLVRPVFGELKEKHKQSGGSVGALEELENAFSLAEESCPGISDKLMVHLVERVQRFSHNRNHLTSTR

[5] = target: kinases (KINOMEscan panel) (Homo sapiens, UniProt O14733); assay type: binding
Sequence of kinases (KINOMEscan panel) (Homo sapiens, UniProt O14733) (O14733 whole entry): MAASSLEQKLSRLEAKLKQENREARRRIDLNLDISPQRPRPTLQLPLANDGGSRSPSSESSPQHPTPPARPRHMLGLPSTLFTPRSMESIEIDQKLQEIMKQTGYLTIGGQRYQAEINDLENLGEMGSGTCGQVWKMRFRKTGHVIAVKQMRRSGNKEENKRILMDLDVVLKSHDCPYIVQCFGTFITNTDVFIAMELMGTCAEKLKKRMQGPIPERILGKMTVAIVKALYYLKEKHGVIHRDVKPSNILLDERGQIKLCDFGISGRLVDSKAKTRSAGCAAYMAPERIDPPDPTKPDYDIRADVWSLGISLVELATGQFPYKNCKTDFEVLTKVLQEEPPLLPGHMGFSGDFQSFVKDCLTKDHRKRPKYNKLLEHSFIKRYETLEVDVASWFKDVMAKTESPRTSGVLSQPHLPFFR

[6] = target: kinases (KINOMEscan panel) (Homo sapiens, UniProt P46734); assay type: binding
Sequence of kinases (KINOMEscan panel) (Homo sapiens, UniProt P46734) (P46734 whole entry): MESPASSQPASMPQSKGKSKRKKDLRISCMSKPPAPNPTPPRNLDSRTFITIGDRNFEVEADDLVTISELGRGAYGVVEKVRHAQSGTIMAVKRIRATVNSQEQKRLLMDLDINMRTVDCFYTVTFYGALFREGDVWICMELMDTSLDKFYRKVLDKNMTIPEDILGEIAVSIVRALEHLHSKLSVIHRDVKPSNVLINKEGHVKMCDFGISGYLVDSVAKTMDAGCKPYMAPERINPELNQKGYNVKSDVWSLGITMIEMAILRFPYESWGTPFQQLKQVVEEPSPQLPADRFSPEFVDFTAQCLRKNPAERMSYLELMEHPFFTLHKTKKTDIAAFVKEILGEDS

[7] = target: kinases (KINOMEscan panel) (Homo sapiens, UniProt P51812); assay type: binding
Sequence of kinases (KINOMEscan panel) (Homo sapiens, UniProt P51812) (P51812 whole entry): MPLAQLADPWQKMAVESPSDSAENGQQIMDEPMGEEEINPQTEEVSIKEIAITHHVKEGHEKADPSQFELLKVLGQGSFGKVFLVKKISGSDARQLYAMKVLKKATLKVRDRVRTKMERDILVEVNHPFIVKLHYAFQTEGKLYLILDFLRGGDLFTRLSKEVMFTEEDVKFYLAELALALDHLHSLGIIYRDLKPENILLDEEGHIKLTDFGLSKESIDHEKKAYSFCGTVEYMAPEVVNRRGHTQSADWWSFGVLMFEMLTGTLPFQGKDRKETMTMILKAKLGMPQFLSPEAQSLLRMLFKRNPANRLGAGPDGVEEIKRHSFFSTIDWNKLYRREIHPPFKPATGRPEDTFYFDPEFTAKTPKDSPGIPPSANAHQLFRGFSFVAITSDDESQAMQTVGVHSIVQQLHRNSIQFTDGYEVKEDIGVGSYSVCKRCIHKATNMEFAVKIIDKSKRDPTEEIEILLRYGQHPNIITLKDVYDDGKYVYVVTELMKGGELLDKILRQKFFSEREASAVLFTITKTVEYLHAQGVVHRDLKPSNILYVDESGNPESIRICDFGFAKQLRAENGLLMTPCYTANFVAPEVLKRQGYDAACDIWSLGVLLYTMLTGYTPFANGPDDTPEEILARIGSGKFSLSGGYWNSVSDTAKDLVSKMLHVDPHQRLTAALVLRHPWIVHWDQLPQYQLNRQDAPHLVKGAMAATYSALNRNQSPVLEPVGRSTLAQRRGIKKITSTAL

[8] = target: kinases (KINOMEscan panel) (Homo sapiens, UniProt Q16288); assay type: binding
[9] = target: kinases (KINOMEscan panel) (Homo sapiens, UniProt Q16659); assay type: binding
Sequence of kinases (KINOMEscan panel) (Homo sapiens, UniProt Q16659) (Q16659 whole entry): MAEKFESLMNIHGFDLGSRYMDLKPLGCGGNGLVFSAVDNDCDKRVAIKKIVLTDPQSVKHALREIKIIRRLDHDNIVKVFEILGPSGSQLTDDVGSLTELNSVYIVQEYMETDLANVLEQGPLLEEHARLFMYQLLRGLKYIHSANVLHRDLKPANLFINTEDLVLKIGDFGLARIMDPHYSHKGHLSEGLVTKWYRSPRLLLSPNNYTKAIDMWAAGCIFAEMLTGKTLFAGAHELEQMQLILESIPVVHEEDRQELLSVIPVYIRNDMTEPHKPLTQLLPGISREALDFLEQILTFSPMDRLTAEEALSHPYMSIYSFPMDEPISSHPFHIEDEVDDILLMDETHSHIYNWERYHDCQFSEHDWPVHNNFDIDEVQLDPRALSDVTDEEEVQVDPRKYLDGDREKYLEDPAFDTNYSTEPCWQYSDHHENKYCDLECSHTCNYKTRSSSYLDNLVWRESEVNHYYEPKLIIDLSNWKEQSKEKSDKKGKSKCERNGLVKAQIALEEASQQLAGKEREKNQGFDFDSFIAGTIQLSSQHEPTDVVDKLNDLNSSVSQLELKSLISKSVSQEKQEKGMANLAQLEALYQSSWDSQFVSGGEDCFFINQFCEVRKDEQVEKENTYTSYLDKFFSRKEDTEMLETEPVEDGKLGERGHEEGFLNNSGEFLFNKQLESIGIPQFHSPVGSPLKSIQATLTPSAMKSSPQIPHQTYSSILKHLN

[10] = target: kinases (KINOMEscan panel) (Homo sapiens, UniProt Q9H2G2); assay type: binding
[11] = target: kinases (KINOMEscan panel) (Homo sapiens, UniProt Q9UEE5); assay type: binding
Sequence of kinases (KINOMEscan panel) (Homo sapiens, UniProt Q9UEE5) (Q9UEE5 whole entry): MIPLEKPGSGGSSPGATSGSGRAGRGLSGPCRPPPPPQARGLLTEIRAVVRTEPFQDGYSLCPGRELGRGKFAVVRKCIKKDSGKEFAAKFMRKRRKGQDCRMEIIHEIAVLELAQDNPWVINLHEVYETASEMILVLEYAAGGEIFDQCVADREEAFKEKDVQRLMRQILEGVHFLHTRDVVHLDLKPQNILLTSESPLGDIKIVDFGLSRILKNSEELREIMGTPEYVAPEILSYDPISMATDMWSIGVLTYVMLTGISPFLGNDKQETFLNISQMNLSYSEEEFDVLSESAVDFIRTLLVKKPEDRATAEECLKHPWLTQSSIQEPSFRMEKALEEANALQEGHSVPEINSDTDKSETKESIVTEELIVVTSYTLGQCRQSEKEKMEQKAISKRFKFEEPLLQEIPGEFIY

Compound | HTT fluorescent aggregates / cells bearing aggregates (in words) (GFP-Ex1HTT74Q) | KiNativ in-cell binding, % Inhibition, SRPK1, SRPK2 (SRPK1, SRPK2) [%] | inhibition at 2 µM [1] [%] | KiNativ in-cell binding, CSNK2A1 [2] | inhibition at 2 µM ([3]; Labeling Site Activation Loop, KVPFAWCAPESLK) [%] | inhibition at 2 µM ([3]; Labeling Site Lys1, TVSVAVKCLKPDVLSQPEAMDDFIR) [%] | TFE3 nuclear translocation in response to compound after PRKD knockdown (in words) (TFE3) | inhibition at 2 µM (PRKD3; Labeling Site Lys1, DVAIKVIDK) [%] | inhibition at 2 µM (PRKD3; Labeling Site Lys2, NIVHCDLKPENVLLASAEPFPQVK) [%] | KiNativ binding of PRKD3 (in words) (PRKD3; SH-SY5Y cells treated 2 h) | KINOMEscan MAPK9/JNK2 (MAPK9/JNK2) | KINOMEscan STK25/YSK1 [4] | KINOMEscan MAP2K7/MKK7 [5] | KINOMEscan MAP2K3/MEK3 [6] | KINOMEscan RPS6KA3/RSK2(Kin.Dom.1-N-terminal) [7] | KINOMEscan RPS6KA3/RSK2(Kin.Dom.2-C-terminal) [7] | KINOMEscan NTRK3/TRKC [8] | KINOMEscan MAPK6/ERK3 [9] | KINOMEscan FYN/SLK [10] | KINOMEscan STK17A/DRAK1 [11]
Cc1cccc(-c2nc(Nc3ccc4ncsc4c3)c3ccccc3n2)n1 [NK140] | no reduction in fluorescent aggregates | 80.8 | -1.3 | 31.0 | -3.4 | 12.9 | no increased activity in the TFE3 translocation assay; also recorded: not altered by knockdown of PRKD | 71.5 | 78.5 | bound |  |  |  |  |  |  |  |  |  | 
Cc1cccc(-c2nc(N(C)c3ccc4ncsc4c3)c3ccccc3n2)n1 [NK-161] |  |  |  |  |  |  |  |  |  |  | 7 | 2 | 0 | 0 | 5 | 27 | 29 | 14 | 4 | 0
